ChEMBL document CHEMBL5465560, “Selectivity Literature for EUbOPEN Chemogenomic Library” (2024)

What was measured:
[1] = target: High affinity nerve growth factor receptor (Homo sapiens, UniProt P04629); experiment: Selectivity interaction (Millipore kinase profiler) EUB0000124b NTRK1; conditions: at 10 µM
[2] = target: T1, Mitogen-activated protein kinase kinase kinase kinase 2 (Homo sapiens) (UniProt Q12851); experiment: Selectivity interaction (Kinase panel (literature)) EUB0001199aCl MAP4K2; conditions: at 1 µM
T1 sequence (whole entry): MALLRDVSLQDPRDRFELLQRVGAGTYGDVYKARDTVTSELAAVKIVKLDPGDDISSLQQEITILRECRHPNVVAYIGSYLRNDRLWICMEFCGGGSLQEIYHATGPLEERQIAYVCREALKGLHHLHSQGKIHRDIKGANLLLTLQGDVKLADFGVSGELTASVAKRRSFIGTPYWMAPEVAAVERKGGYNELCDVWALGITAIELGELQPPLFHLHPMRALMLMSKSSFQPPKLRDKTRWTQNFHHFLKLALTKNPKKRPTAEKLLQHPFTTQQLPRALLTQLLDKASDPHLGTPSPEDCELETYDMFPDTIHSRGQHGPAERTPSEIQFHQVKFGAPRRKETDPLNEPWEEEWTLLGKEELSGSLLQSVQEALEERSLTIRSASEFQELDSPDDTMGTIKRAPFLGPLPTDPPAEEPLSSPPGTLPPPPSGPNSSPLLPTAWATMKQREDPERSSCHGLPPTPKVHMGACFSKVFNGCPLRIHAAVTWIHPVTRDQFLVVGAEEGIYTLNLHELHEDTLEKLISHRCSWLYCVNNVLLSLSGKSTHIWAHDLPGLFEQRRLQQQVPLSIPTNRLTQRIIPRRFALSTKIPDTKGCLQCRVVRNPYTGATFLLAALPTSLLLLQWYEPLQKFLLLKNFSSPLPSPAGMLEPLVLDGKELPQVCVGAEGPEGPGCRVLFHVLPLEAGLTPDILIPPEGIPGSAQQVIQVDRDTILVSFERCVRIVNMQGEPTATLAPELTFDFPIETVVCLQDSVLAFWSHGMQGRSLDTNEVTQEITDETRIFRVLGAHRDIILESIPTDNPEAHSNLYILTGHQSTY

[3] = target: T2, Mitogen-activated protein kinase kinase kinase kinase 3 (Homo sapiens) (UniProt Q8IVH8); experiment: Selectivity interaction (KinomeScan (DiscoverX)) EUB0001079a MAP4K3; conditions: at 1 µM
T2 sequence (whole entry): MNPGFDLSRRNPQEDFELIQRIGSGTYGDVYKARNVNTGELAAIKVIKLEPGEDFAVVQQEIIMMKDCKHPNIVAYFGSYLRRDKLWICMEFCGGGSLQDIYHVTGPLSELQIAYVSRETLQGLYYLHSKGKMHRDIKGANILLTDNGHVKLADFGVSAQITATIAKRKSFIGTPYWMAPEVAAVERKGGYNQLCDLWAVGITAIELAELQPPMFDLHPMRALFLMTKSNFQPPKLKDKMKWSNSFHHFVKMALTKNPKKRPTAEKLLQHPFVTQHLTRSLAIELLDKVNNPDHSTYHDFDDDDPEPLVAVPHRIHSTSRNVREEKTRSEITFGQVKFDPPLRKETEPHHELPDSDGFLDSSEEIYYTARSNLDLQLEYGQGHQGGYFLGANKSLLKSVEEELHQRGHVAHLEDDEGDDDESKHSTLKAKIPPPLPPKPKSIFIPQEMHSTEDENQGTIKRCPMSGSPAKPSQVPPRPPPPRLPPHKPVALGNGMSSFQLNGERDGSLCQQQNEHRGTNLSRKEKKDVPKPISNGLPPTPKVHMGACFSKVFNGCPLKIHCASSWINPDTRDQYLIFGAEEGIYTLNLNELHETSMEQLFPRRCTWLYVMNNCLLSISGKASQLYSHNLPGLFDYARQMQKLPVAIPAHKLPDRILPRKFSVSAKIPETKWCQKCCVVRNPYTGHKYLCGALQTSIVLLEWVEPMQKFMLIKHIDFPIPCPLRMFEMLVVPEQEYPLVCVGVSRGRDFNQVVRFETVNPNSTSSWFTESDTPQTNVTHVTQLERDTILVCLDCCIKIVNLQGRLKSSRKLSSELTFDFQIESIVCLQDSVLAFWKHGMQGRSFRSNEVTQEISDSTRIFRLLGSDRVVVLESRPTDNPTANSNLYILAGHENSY

[4] = target: Vascular endothelial growth factor receptor 3 (Homo sapiens, UniProt P35916); experiment: Selectivity interaction (KinomeScan (DiscoverX)) EUB0000699a FLT4; conditions: at 10 µM
[5] = target: Cyclin-dependent kinase 14 (Homo sapiens) (UniProt O94921); conditions: at 10 µM
[6] = target: Serine/threonine-protein kinase 38 (Homo sapiens) (UniProt Q15208); experiment: Selectivity interaction (ActivX KiNativ screen (ex vivo kinase selectivity in human PBMCs)) EUB0001619a STK38; assay type: cell-based; conditions: PBMC, at 1 µM
[7] = target: T3, Ephrin type-B receptor 6 (Homo sapiens) (UniProt O15197); experiment: Selectivity interaction (KinomeScan (DiscoverX)) EUB0000607a EPHB6; conditions: at 10 µM
T3 sequence (whole entry): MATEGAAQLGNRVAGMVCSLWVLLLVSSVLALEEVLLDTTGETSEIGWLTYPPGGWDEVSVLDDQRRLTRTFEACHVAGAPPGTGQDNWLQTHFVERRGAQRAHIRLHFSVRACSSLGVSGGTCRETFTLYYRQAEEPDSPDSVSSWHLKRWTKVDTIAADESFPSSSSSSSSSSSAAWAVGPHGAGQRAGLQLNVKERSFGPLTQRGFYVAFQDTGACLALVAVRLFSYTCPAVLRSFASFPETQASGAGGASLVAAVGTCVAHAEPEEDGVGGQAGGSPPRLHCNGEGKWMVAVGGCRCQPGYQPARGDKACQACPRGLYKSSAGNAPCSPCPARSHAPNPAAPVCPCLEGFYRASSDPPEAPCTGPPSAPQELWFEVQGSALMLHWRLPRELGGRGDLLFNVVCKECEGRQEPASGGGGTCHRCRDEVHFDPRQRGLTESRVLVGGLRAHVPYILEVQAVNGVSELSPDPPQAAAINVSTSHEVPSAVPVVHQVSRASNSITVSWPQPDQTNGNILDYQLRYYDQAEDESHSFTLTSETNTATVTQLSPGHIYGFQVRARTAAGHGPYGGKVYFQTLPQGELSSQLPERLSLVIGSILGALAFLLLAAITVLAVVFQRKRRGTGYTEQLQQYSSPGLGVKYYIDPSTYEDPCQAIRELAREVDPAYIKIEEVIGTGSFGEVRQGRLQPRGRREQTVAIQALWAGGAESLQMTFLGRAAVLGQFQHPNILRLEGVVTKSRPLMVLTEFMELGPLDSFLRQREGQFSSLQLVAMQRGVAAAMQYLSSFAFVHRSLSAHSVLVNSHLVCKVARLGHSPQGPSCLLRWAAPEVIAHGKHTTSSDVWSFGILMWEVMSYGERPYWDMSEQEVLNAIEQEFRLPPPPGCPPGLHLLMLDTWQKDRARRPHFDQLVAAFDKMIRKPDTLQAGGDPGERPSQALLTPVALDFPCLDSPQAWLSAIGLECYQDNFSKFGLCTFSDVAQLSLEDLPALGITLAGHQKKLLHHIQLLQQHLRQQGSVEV

Chain of Cyclin-dependent kinase 14 (Homo sapiens) (O94921 whole entry): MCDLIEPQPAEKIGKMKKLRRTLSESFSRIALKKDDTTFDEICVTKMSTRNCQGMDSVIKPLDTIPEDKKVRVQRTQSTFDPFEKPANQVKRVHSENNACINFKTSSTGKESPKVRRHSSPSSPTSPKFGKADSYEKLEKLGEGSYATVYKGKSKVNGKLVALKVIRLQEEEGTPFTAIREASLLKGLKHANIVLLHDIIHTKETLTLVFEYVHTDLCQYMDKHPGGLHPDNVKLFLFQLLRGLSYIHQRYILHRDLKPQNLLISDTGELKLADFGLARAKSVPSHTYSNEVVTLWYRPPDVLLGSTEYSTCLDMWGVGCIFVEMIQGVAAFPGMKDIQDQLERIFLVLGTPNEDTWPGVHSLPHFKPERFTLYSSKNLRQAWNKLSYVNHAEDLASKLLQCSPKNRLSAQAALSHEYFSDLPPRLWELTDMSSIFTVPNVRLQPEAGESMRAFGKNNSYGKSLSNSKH
Chain of Vascular endothelial growth factor receptor 3 (P35916 whole entry): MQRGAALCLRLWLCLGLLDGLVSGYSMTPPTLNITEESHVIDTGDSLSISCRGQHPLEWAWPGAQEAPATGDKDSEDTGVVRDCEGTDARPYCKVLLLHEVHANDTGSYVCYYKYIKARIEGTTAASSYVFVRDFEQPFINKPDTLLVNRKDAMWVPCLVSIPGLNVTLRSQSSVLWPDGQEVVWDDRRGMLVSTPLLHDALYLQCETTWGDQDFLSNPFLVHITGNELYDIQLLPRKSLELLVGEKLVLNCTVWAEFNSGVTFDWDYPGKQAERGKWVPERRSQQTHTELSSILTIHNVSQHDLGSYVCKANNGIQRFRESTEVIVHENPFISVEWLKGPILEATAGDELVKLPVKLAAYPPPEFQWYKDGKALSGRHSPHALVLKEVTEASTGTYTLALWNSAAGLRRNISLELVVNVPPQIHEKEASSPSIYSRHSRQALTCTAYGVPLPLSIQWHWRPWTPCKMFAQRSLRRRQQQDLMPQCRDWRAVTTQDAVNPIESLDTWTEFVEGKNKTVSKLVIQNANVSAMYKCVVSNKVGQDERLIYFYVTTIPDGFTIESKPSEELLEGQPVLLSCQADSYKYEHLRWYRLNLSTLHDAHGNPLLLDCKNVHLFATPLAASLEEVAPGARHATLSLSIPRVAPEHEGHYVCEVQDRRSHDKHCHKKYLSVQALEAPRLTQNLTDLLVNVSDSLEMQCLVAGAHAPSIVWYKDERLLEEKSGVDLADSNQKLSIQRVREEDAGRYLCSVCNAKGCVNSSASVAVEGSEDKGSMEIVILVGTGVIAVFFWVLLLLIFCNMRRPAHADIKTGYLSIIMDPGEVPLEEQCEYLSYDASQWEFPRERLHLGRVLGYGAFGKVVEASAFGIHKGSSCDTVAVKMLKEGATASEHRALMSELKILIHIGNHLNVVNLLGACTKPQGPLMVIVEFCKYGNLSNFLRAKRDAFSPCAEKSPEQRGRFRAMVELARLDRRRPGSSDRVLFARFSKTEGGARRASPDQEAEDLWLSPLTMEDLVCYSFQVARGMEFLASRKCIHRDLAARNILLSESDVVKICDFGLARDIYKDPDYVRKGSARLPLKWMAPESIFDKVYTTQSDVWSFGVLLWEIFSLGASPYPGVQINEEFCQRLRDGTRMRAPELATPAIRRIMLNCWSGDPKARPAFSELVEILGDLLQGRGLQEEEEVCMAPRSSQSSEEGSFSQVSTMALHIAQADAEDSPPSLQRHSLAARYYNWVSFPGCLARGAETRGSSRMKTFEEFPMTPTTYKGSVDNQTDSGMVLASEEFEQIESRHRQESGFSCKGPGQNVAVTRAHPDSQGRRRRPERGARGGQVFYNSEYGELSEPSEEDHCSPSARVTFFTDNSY
Chain of Serine/threonine-protein kinase 38 (Homo sapiens) (Q15208 2-465 limits assumed): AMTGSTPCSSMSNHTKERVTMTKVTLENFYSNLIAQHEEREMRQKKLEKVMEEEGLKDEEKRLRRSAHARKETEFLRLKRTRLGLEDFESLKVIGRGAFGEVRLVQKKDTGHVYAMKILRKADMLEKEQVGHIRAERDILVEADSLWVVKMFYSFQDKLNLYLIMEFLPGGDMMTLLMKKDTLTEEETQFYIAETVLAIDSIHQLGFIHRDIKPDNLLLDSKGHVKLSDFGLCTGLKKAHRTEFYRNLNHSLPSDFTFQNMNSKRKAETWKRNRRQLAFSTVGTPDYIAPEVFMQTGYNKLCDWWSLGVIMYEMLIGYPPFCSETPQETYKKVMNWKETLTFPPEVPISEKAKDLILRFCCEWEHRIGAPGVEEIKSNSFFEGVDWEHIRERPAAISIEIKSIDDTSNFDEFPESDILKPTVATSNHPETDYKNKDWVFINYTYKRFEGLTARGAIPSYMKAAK
Chain of High affinity nerve growth factor receptor (P04629 33-796 limits assumed): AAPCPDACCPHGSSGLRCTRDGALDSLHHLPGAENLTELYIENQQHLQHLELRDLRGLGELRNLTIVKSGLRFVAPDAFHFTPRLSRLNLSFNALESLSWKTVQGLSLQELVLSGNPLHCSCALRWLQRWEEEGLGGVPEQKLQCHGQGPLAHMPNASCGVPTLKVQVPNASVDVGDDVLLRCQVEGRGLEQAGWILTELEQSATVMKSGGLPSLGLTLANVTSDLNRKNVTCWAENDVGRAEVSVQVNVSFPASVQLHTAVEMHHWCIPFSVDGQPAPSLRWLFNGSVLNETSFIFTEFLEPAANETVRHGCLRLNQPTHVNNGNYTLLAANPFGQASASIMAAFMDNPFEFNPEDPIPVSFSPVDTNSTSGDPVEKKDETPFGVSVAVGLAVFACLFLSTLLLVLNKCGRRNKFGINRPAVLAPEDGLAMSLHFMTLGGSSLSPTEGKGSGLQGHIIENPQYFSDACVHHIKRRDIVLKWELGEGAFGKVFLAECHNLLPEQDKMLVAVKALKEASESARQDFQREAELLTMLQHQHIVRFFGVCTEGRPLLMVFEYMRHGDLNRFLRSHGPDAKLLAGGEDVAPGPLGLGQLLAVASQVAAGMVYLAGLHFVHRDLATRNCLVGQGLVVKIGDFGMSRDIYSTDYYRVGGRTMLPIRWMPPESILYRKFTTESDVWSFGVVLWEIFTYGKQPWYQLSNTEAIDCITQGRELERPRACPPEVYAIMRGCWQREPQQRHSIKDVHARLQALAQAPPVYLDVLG

For `CC(=O)Nc1cccc(-n2c(=O)n(C3CC3)c(=O)c3c(Nc4ccc(I)cc4F)n(C)c(=O)c(C)c32)c1`, which % of control [1] is on record?
The % of control was 59%.

`CN1Cc2nccc(-c3cn(C)nc3-c3ccc(F)cc3)c2C1=O` was tested. Which % of inhibition [2] did it give?
Its % of inhibition is 4%.

`Nc1cnc(N2CCc3cc(S(=O)(=O)Nc4c(F)cc(Cl)cc4F)cc(N4CCCC4=O)c32)nc1` [TP-020n] was tested. Which % of control [3] did it give?
Its % of control is 93%.

Which results are given for `CCN(CC)CCCCNc1ncc2cc(-c3cc(OC)cc(OC)c3)c(NC(=O)NC(C)(C)C)nc2n1`?
% of control [4]: 6%; % of control [5]: 100%

Which % of inhibition [6] does the source give for `N#Cc1cccc(-c2c[nH]c3ncnc(N4CCOCC4)c23)c1` here?
Its % of inhibition is 4%.

`CNC(=O)Nc1ccc(-c2nc(N3CC4CCC(C3)O4)c3cnn(C4CCC5(CC4)OCCO5)c3n2)cc1` was tested. Which % of control [7] did it give?
Its % of control is 83%.
